Experimental data from patent publication US20230059785A1, “METHODS FOR ENHANCING T CELLS USING VENETOCLAX” (University Health Network, priority 2020, published 2023).

Columns and labels:
[1] = system: DNTs treated with 400 nM Ven; assay: Co-treatment of DNT cells with Venetoclax and ROS scavenger NAC; type: cell-based, human
Protocol: (C) To determine the functional relevance of increased ROS level in Ven treated DNTs, ROS level in DNTs treated with 400 nM Ven in the presence of various concentrations of ROS-scavenger, N-acetylcysteine (NAC), and these cells were used as effector cells against AML during an in vitro killing assay. The result shown is representative of three independent experiments. […] (H-K) DNT (H and I) or Tconv cells (J and K) were treated with 0 nM, 100 nM, or 400 nM Venetoclax for 4 hours, 18 hours and 2 days. Cells were stained with CellROX (H and J) or MitoSOX (I and K). MFI of cellular or mitochondrial (mt) ROS was measured by flow cytometry. Data represent the mean ±SEM of results from four different donor T cells. (L) DNTs treated with 400 nM Venetoclax with or without 2 mM NAC for 18 hours. […] MFI of CD25 and CD69 were measured by flow cytometry. Experiments were done in triplicates, and the data shown is representative of two independent experiments done using DNTs from two donors. (M) DNT cells were treated with 400 nM Venetoclax for 18 hours.

OCI-AML2 [2] = assay: DNT cells pre-treated with Bcl-2 family protein inhibitors, used as effectors against OCI-AML2; conditions: overnight pre-treatment, different concentrations
Excerpt: FIG. 5. […] (A) DNT cells were pre-treated with different concentrations of Obatoclax, ABT-737, or Venetoclax overnight and were used as effector cells against OCI-AML2. […] (C) Expression of Bcl-xL and Bcl-2 on ex vivo expanded DNT cells from three donors (UPN38, UPN108, and UPN134) and AML cell lines, OCI-AML2, TEX, NB4, and K562 determined by Western blot. Tubulin was used as a loading control.
As Bcl-2 is well-known to protect cells from apoptosis, one would expect that inhibiting this pathway would lead to increased T cell apoptosis and dampened T cell function.

OCI-AML2 [3] = assay: Time course of Venetoclax treatment of DNT and Tconv cells, cytotoxicity against OCI-AML2; type: cell-based, human; conditions: DNTs and Tconv cells; Venetoclax 100 nM and 400 nM; 4 hours up to 3 days
Protocol: (§1) Venetoclax rapidly and directly increases cytotoxicity of T cells against AML. DNT (top panels) and Tconv cells (bottom panels) untreated or treated with Venetoclax (100 nM and 400 nM) for 4 h, 18 h, and 3 days. Subsequently, their cytotoxicity against OCI-AML2 was determined. Data represent the mean ±SEM of results from four different donor T cells. FIG. 4(C). DNT and Tconv cells untreated or treated with Venetoclax (100 nM or 400 nM) for 4 hours. Subsequently, their viability was determined. Data represent the mean ±SEM of results from four different donor T cells.
(§2) To elucidate the underlying mechanism by which Ven-mediates increased cytotoxicity of T cells, the expression of T cell activation markers and effector molecules on DNT cells with or without Ven treatment was compared. […] Thus, Venetoclax directly activates effector T cells to increase their cytotoxicity without depleting naïve or inhibitory T cell subsets.

DNT and Tconv cells = assay: Viability of DNT and Tconv cells after Venetoclax treatment; type: cell-based, human; conditions: Venetoclax 100 nM or 400 nM, 4 hours
Protocol: as §1, §2

DNT cells = assay: Glycolysis, glycolytic capacity and oxygen consumption rate of DNT cells; type: cell-based, human
DNTs [4] = assay: Viability of DNTs treated with Venetoclax (Annexin V staining and flow cytometry); type: cell-based, human; conditions: Venetoclax 18 h
Protocol: FIG. 10. […] (A) Viability of DNTs and OCI-AML2 cells treated with 400 nM Venetoclax for 18 hours was determined by Annexin V staining and flow cytometry. (B and C) DNTs were treated with increasing concentrations of Venetoclax for 18 h. Subsequently, their viability (B) and cytotoxicity (C) against OCI-AML2 and two primary AML cells (090765 and 110162) were determined. ANOVA was used for statistics. ****p<0.0001.

[5] = system: primary AML patient samples; type: cell-based, human
Protocol: (§3) FIG. 2. Venetoclax enhances T cell mediated cytotoxicity against AML in vitro. (A) To validate the finding from the drug screening, in vitro killing assay was conducted with DNT cells untreated or pretreated with various concentrations of Ven (50 nM, 100 nM, 200 nM, 400 nM) for overnight against AML cell lines, OCI-AML2, OCI-AML3, and KG1a. The data is representative of four biological replicates. (B) In vitro cytotoxicity assay using DNT cells pretreated with 400 nM Ven as effectors against primary AML patient samples (n=17). (C) To determine the activity of DNT cells with or without Ven-treatment against leukemia initiating cells, untreated AML or AML treated with untreated or Ven-treated DNT cells were seeded at 10^3 cells per ml in a methylcellulose-based colony forming assay, and the number of colonies formed were determined 10 days after. The experiment was done with OCI-AML2 and KG1a, as well as patient samples 140372, 100857, 110162 and 141065. […] The experiment was done using DNT cells from two different donors (UPN119 and UPN38). […] Subsequently, they were cultured with OCI-AML2 at 1:1, 2:1, or 4:1 DNT:AML ratio, and the viability of AML cells were measured by Annexin V staining and flow cytometry. […]
FIG. 11. […] The increase in DNT-mediated cytotoxicity by Venetoclax treatment was determined against each patient sample type. […]

[6] = system: AML cell lines, OCI-AML2, OCI-AML3, and KG1a; assay: In vitro killing assay with Ven-pretreated DNT cells against AML cell lines; type: cell-based, human; conditions: Ven 50, 100, 200, 400 nM overnight
Protocol: as §3, with “UPN38). (E) Correlation between the susceptibility of AML to DNT cells and the degree of increase in DNT cell-mediated cytotoxicity by Ven treatment.” for “UPN38).”

[7] = system: autologous and allogeneic PBMCs; assay: Cytotoxicity of DNT cells against normal blood cells; type: cell-based, human; conditions: PBMCs from healthy donors
Excerpt: To determine if Ven increases the cytotoxicity of DNT cells against normal blood cells, autologous and allogeneic PBMCs from healthy donors were used as targets.

[8] = system: human AML cell line, OCI-AML2; assay: Drug screening assay: DNT cells pretreated with 269 approved drugs, then used as effectors against AML; type: cell-based; conditions: DNT cells treated at 400 nM overnight, washed, cultured with AML cells two hours; library of 269 drugs
Protocol: FIG. 1. Drug screening assay identifies Venetoclax as the top hit for enhancing cytotoxicity of T cells against AML. Schematic diagram of drug screening assay done to identify clinically approved drugs that can be used in combination with DNT cells to yield in synergistic anti-tumor activity. DNT cells were treated with 269 different clinically approved drugs at 400 nM for overnight. Subsequently, compound-treated cells were washed and then cultured with AML cells for two-hours.
To identify molecules that increase the potency of T cell mediated cytotoxicity against AML, ex vivo expanded DNT cells were used as a surrogate for anti-leukemic T cells and pretreated with a compound library of 269 drugs approved for various clinical uses. Subsequently, compound-treated cells were used as effectors against human AML cell line, OCI-AML2.

[9] = system: AML cell lines, OCI-AML2, OCI-AML3, and KG1a; assay: In vitro killing assay with Ven-pretreated Tconv cells against AML cell lines; type: cell-based, human; conditions: Ven 25-400 nM
Protocol: FIG. 4(A). Venetoclax enhances anti-leukemic activity of CD4^+ or CD8^+ conventional T cells. Ex vivo expanded Tconv cells untreated or treated with various concentrations of Ven (25 nM, 50 nM, 100 nM, 200 nM, or 400 nM), were used as effector cells against AML cell lines, OCI-AML2, OCI-AML3, and KG1a. The result shown represents four biological replicates. FIG. 4(B).
While treating DNT cells with Ven to enhance their anti-leukemic activity may be beneficial for DNT-therapy, experiments were performed to determine whether Ven has an effect on the anti-leukemic activity of CD4^+ or CD8^+ conventional T (Tconv) cells as Tconv cells are more wildly used as cancer immunotherapy clinically. To this end, polyclonally activated Tconv cells were pre-treated with different concentrations of Ven prior to their co-culture with […]

DNTs [10] = assay: Effect of other ROS-inducing reagents on DNT ROS level and viability; conditions: 18 hours; cytarabine 0-3 μM, antimycin 0-250 nM, daunorubicin 0-10 μM
Protocol: (§4) FIG. 15. Effect of other known ROS-inducing reagents on DNT viability, ROS level, and cytotoxicity against AML. DNTs were treated with increasing concentrations of cytarabine (0-3 μM), antimycin (0-250 nM) or daunorubicin (0-10 μM) for 18 hours. Subsequently, the level of cellar ROS in the DNTs (A), DNT viability (B), and cytotoxicity against OCI-AML2 (C) were determined.
(§5) To determine the effect of other ROS-inducing agents on DNT-mediated cytotoxicity, DNTs were treated with increasing concentrations of cytarabine, daunorubicin, and antimycin.

OCI-AML2 [11] = assay: Effect of other ROS-inducing reagents on DNT cytotoxicity against OCI-AML2; conditions: 18 hours; cytarabine 0-3 μM, antimycin 0-250 nM, daunorubicin 0-10 μM
Protocol: as §4, §5

## CC(=O)N[C@@H](CS)C(=O)O [NAC, N-acetylcysteine]
[1]; 400 nM Venetoclax with 2 mM NAC, 18 hours
  upregulation of activation markers (CD25 and CD69) by Venetoclax: blocked the upregulation of activation markers
[1]; co-treatment with 400 nM Ven
  DNT cell-mediated cytotoxicity against AML: abrogated the effect of Venetoclax on DNT cell-mediated cytotoxicity against AML
  cellular ROS level in Venetoclax-treated DNT cells: reduced the cellular ROS level

## COC1=CC(c2cc3ccccc3[nH]2)=N/C1=C\c1[nH]c(C)cc1C [Obatoclax]
OCI-AML2 [2]
  effect on DNT cells and their cytotoxicity against OCI-AML2: induced DNT cell death or inhibited their cytotoxicity

## CC1(C)CCC(CN2CCN(c3ccc(C(=O)NS(=O)(=O)c4ccc(NCC5CCOCC5)c([N+](=O)[O-])c4)c(Oc4cnc5[nH]ccc5c4)c3)CC2)=C(c2ccc(Cl)cc2)C1 [Venetoclax]
OCI-AML2 [3]
  T cell cytotoxicity against AML after different treatment times: increased T cell cytotoxicity against AML
DNT and Tconv cells
  T cell viability: without changing the T cell viability
DNT cells
  glycolysis, glycolytic capacity, and basal oxygen consumption rate of DNT cells: no significant effect
DNTs [4]
  viability of DNTs: without reducing the viability of the DNTs
[5]
  correlation between susceptibility of AML to DNT cells and degree of increase in DNT cell-mediated cytotoxicity by Ven treatment: clear inverse correlation
[6]
  cytotoxicity of Ven-pretreated DNT cells against AML cell lines: increased cytotoxicity of DNT cells against three different AML cell lines, AML2-OCI, AML3-OCI, and KG1a, in a dose-dependent manner
[7]
  killing of autologous and allogeneic PBMCs by Ven-treated DNT cells: insignificant degree of killing
[8]
  change in cytotoxicity mediated by DNT cells against AML cells relative to untreated DNT cells: increased the cytotoxicity of DNT cells the most
[9]
  cytotoxicity of Ven-pretreated Tconv cells against AML cell lines: significant enhancement of cytotoxicity of Tconv cells

## Nc1ccn([C@@H]2O[C@H](CO)[C@@H](O)[C@@H]2O)c(=O)n1 [cytarabine]
DNTs [10]
  level of cellular ROS in DNTs: Increased ROS levels

## COc1cccc2c1C(=O)c1c(O)c3c(c(O)c1C2=O)C[C@@](O)(C(C)=O)C[C@@H]3O[C@H]1C[C@H](N)[C@H](O)[C@H](C)O1 [daunorubicin]
DNTs [10]
  level of cellular ROS in DNTs: lower ROS level

## antimycin
DNTs [10]
  DNT viability: no to little loss of viability
  level of cellular ROS in DNTs: Increased ROS levels
OCI-AML2 [11]
  DNT-mediated cytotoxicity against OCI-AML2: did not enhance the cytotoxicity of DNTs
